Reference: US20140094465A1, “Compounds as S-Nitrosoglutathione Reductase Inhibitors” (N30 PHARMACEUTICALS, INC., priority 2011, published 2014)

Each compound was assayed against T1, S-nitrosoglutathione reductase (GSNOR) (Homo sapiens, UniProt P11766) (assay: GSNOR assay (inhibition of GSNOR activity, NADH absorbance at 340 nm)). Details: GSNOR inhibitor activity, Tables 1-6; read-out: IC50 range.
T1 construct: made in house; host or cells: E. coli
Format: biochemical
Procedure: Various compounds were tested in vitro for their ability to inhibit GSNOR activity.
GSNOR expression and purification is described in Biochemistry 2000, 39, 10720-10729.
Pre-cultures were grown from stabs of a GSNOR glycerol stock in 2XYT media containing 100 ug/ml ampicillin after an overnight incubation at 37° C. […] GSNOR expression was induced with 0.1% arabinose in an overnight incubation at 20° C.
E. coli cell paste was lysed by nitrogen cavitation and the clarified lysate purified by Ni affinity chromatography on an AKTA FPLC (Amersham Pharmacia). The column was eluted in 20 mM Tris pH 8.0/250 mM NaCl with a 0-500 mM imidazole gradient. Eluted GSNOR fractions containing the Smt-GSNOR fusion were digested overnight with Ulp-1 at 4° C. to remove the affinity tag then re-run on the Ni column under the same conditions. GSNOR was recovered in the flowthrough fraction and for crystallography is further purified by Q-Sepharose and Heparin flowthrough chromatography in 20 mM Tris pH 8.0, 1 mM DTT, 10 uM ZnSO4.
GSNOR assay: GSNO and enzyme/NADH Solutions are made up fresh each day. The solutions are filtered and allowed to warm to room temperature. GSNO solution: 100 mM NaPO4 (pH 7.4), 0.480 mM GSNO. 396 μL of GSNO Solution is added to a cuvette followed by 8 μL of test compound in DMSO (or DMSO only for full reaction control) and mixed with the pipette tip. Compounds to be tested are made up at a stock concentration of 10 mM in 100% DMSO. 2 fold serial dilutions are done in 100% DMSO. 8 μL of each dilution are added to an assay so that the final concentration of DMSO in the assay is 1%. The concentrations of compounds tested range from 100 to 0.003 μM. Enzyme/NADH solution: 100 mM NaPO4 (pH 7.4), 0.600 mM NADH, 1.0 μg/mL GSNO Reductase. 396 μL of the Enzyme/NADH solution is added to the cuvette to start the reaction. The cuvette is placed in the Cary 3E UV/Visible Spectrophotometer and the change in 340 nm absorbance/min at 25° C. is recorded for 3 minutes. The assays are done in triplicate for each compound concentration. IC50's for each compound are calculated using the standard curve analysis in the Enzyme Kinetics Module of SigmaPlot.
Final assay conditions: 100 mM NaPO4, pH 7.4, 0.240 mM GSNO, 0.300 mM NADH, 0.5 μg/mL GSNO Reductase, and 1% DMSO. Final volume: 800 μL/cuvette.

T1 sequence (P11766 whole entry): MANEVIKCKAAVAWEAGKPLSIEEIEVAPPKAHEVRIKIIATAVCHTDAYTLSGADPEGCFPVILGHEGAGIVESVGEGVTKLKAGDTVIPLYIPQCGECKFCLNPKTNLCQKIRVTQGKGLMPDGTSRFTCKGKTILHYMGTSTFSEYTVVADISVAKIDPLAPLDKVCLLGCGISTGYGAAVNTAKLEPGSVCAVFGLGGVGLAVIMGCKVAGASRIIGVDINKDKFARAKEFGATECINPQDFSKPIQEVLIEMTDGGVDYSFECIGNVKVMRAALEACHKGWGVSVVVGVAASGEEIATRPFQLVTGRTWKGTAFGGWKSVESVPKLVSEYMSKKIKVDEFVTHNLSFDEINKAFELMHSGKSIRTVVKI

Row | IC50 | SMILES
1 | < 100 nM | O=C(O)c1ccc(CS(=O)(=O)c2ccc(O)c(F)c2)c(F)c1 [VI-20, 3-fluoro-4-(((3-fluoro-4-hydroxyphenyl)sulfonyl)methyl)benzoic acid]
2 | 1000 to 10000 nM | O=C(O)c1ccc(Oc2c(-c3ccc(O)cc3)oc3cc(O)ccc3c2=O)cc1 [Compound V-10, 4-(7-hydroxy-2-(4-hydroxyphenyl)-4-oxo-4H-chromen-3-yloxy)benzoic acid]
3 | < 100 nM | O=C(O)C1CCN(c2nc3ccc(O)cc3nc2C(F)(F)F)CC1 [II-11]
4 | 100 to 1000 nM | Oc1ccc2nc(-c3ccc(-c4nn[nH]n4)s3)ccc2c1 [Compound I-38]
5 | < 100 nM | O=c1[nH]c(-c2ccc(-c3c(C(F)(F)F)oc4cc(O)ccc4c3=O)c(F)c2)no1 [IV-41]
6 | 1000 to 10000 nM | O=C(O)c1ccc(NC(=O)c2ccc(O)cc2O)cc1 [VI-16, 4-(2,4-dihydroxybenzamido)benzoic acid]
7 | < 100 nM | O=C(O)c1ccc(-c2ccc3c(F)c(O)ccc3n2)c(Cl)c1 [Compound I-57]
8 | < 100 nM | O=C(O)C1CC=C(c2nc3ccc(O)cc3nc2C(F)(F)F)CC1 (centres unmarked) [II-12]
9 | 100 to 1000 nM | CS(=O)(=O)NC(=O)c1ccc(-c2c(C(F)(F)F)oc3cc(O)ccc3c2=O)cc1 [IV-32]
10 | < 100 nM | O=C(O)c1ccc(CC(=O)c2ccc(O)cc2Cl)c(F)c1 [VI-6, 4-(2-(2-chloro-4-hydroxyphenyl)-2-oxoethyl)-3-fluorobenzoic acid]
11 | < 100 nM | O=C(O)c1ccc(CC(=O)c2ccc(O)c(F)c2F)cc1 [VI-5, 4-(2-(2,3-difluoro-4-hydroxyphenyl)-2-oxoethyl)benzoic acid]
12 | 1000 to 10000 nM | O=C(O)c1ccc(NCc2ccc(O)c(F)c2)c(F)c1 [VI-31, 3-fluoro-4-((3-fluoro-4-hydroxybenzyl)amino)benzoic acid]
13 | < 100 nM | Cc1cc(C(=O)O)ccc1-c1ccc2cc(O)ccc2c1 [III-37, 4-(6-hydroxynaphthalen-2-yl)-3-methylbenzoic acid]
14 | 100 to 1000 nM | O=C(O)c1ccc(CC(=O)c2cc(F)c(O)c(F)c2)c(F)c1 [VI-8, 4-(2-(3,5-difluoro-4-hydroxyphenyl)-2-oxoethyl)-3-fluorobenzoic acid]
15 | < 100 nM | O=c1[nH]c(-c2ccc(-c3c(C(F)(F)F)oc4cc(O)ccc4c3=O)cc2)ns1 [IV-33]
16 | 1000 to 10000 nM | Nc1cc(-c2ccc(C(=O)O)cc2)nc2ccc(O)cc12 [Compound I-51, 4-(4-amino-6-hydroxyquinolin-2-yl)benzoic acid]
17 | < 100 nM | Cc1oc2cc(O)ccc2c(=O)c1-c1ccc(-c2nnn[nH]2)cc1 [IV-28]
18 | < 100 nM | O=C(O)c1ccc(-c2c(C(F)(F)F)oc3cc(O)ccc3c2=O)cc1F [IV-14]

Row | IC50 | SMILES
19 | 1000 to 10000 nM | O=C(O)c1ccc(-c2cc3ccc(O)cc3cc2O)cc1 [III-25, 4-(3,6-dihydroxynaphthalen-2-yl)benzoic acid]
20 | < 100 nM | O=C(O)[C@H]1CC[C@H](c2nc3ccc(O)cc3cc2C(F)(F)F)CC1 [Compound I-43]
21 | 100 to 1000 nM | O=C(O)c1ccc(CC(=O)c2c(F)cc(O)cc2F)c(F)c1 [VI-10, 4-(2-(2,6-difluoro-4-hydroxyphenyl)-2-oxoethyl)-3-fluorobenzoic acid]
22 | < 100 nM | O=C(O)c1ccc(-c2ccc3c(F)c(O)ccc3n2)cc1 [Compound I-53, 4-(5-fluoro-6-hydroxyquinolin-2-yl)benzoic acid]
23 | 1000 to 10000 nM | O=C(O)c1ccc(/C=C/c2ccc(O)cc2O)cc1 [VI-13, (E)-4-(2,4-dihydroxystyryl)benzoic acid]
24 | 100 to 1000 nM | Cc1oc2cc(O)ccc2c(=O)c1-c1ccc(C(=O)O)cc1 [IV-5]
25 | 100 to 1000 nM | O=C(O)c1csc(-c2c(C(F)(F)F)oc3cc(O)ccc3c2=O)c1 [IV-35]
26 | 1000 to 10000 nM | O=C(O)c1ccc(Oc2c(-c3ccc(F)cc3)oc3cc(O)ccc3c2=O)cc1 [Compound V-8, 4-(2-(4-fluorophenyl)-7-hydroxy-4-oxo-4H-chromen-3-yloxy)benzoic acid]
27 | < 100 nM | COc1cc(C(=O)O)ccc1-c1ncc2cc(O)ccc2n1 [II-5]
28 | < 100 nM | O=C(O)c1ccc(-c2ccc3cc(O)ccc3c2)cc1O [III-35, 2-hydroxy-4-(6-hydroxynaphthalen-2-yl)benzoic acid]
29 | < 100 nM | O=c1nc(-c2ccc(-c3ccc4cc(O)ccc4n3)cc2F)[nH]o1 [Compound I-20]
30 | < 100 nM | O=C(O)c1ccc(-c2ccc3c(F)c(O)ccc3c2)c(Cl)c1 [III-30]
31 | 100 to 1000 nM | COc1cc(-c2ccc3cc(O)ccc3c2)ccc1C(=O)O [III-34, 4-(6-hydroxynaphthalen-2-yl)-2-methoxybenzoic acid]
32 | 1000 to 10000 nM | O=C(O)c1ccc(-c2ccc3cc(O)ccc3n2)s1 [Compound I-15]
33 | 100 to 1000 nM | O=C(O)c1ccc(CC(=O)c2ccc(O)cc2O)c(F)c1 [VI-18, 4-(2-(2,4-dihydroxyphenyl)-2-oxoethyl)-3-fluorobenzoic acid]
34 | < 100 nM | O=c1c(-c2ccc(-c3nnn[nH]3)cc2)c(C(F)F)oc2cc(O)ccc12 [IV-27]
35 | < 100 nM | Oc1ccc2cc(-c3ccc(-c4nnn[nH]4)cc3)ccc2c1 [III-18]

Same assay, conditions: Table 7; GSNOR inhibition, IC50 range class a/b/c; read-out: IC50

Row | IC50 | SMILES
36 | < 100 nM | CCOCCn1c(-c2ccc(O)cc2)ccc1-c1ccc(C(=O)O)cc1 [VII-35, 4-(1-(2-ethoxyethyl)-5-(4-hydroxyphenyl)-1H-pyrrol-2-yl)benzoic acid]
37 | < 100 nM | CC(C)n1c(-c2ccc(O)cc2)ccc1-c1ccc(C(=O)O)cc1 [VII-32, 4-(5-(4-hydroxyphenyl)-1-isopropyl-1H-pyrrol-2-yl)benzoic acid]
38 | < 100 nM | CCCn1c(-c2ccc(O)cc2)ccc1-c1ccc(C(=O)O)cc1 [VII-37, 4-(5-(4-hydroxyphenyl)-1-propyl-1H-pyrrol-2-yl)benzoic acid]
39 | 100 to 1000 nM | O=C(O)c1ccc(-c2ccc(-c3ccc(O)cc3)s2)s1 [VII-12, 5′-(4-hydroxyphenyl)-2,2′-bithiophene-5-carboxylic acid]
40 | < 100 nM | O=C(O)c1ccc(-c2csc(-c3ccc(O)cc3)n2)s1 [VII-9, 5-(2-(4-hydroxyphenyl)thiazol-4-yl)thiophene-2-carboxylic acid]
41 | 100 to 1000 nM | O=C(O)c1ccc(-c2ccc(-c3ccc(O)cc3)s2)cc1 [VII-4, 4-(5-(4-hydroxyphenyl)thiophen-2-yl)benzoic acid]
42 | < 100 nM | CC(C)CCn1c(-c2ccc(O)cc2)ccc1-c1ccc(C(=O)O)cc1 [VII-28, 4-(5-(4-hydroxyphenyl)-1-isopentyl-1H-pyrrol-2-yl)benzoic acid]
43 | 100 to 1000 nM | O=C(O)c1ccc(-c2ccc(-c3ccc(O)c(F)c3)s2)cc1 [VII-7, 4-(5-(3-fluoro-4-hydroxyphenyl)thiophen-2-yl)benzoic acid]

Same assay, conditions: Table 8; GSNOR inhibition, IC50 range class a/b/c; read-out: IC50

Row | IC50 | SMILES
44 | 1000 to 10000 nM | CC1Cc2cc(O)ccc2C(=O)N1[C@H]1CC[C@H](C(=O)O)CC1 (stereo partly drawn) [VIII-17, (trans)-4-(6-hydroxy-3-methyl-1-oxo-3,4-dihydroisoquinolin-2(1H)-yl)cyclohexanecarboxylic acid]
45 | 1000 to 10000 nM | O=C(O)c1ccc(-c2cc(=O)c3cc(O)ccc3[nH]2)c(F)c1 [VIII-8, 3-fluoro-4-(6-hydroxy-4-oxo-1,4-dihydroquinolin-2-yl)benzoic acid]
46 | 1000 to 10000 nM | O=C(O)c1ccc(-c2cc(=O)c3cc(O)ccc3[nH]2)c(Cl)c1 [VIII-9, 3-chloro-4-(6-hydroxy-4-oxo-1,4-dihydroquinolin-2-yl)benzoic acid]
47 | 1000 to 10000 nM | O=C(O)c1ccc(N2CCc3cc(O)ccc3C2)cc1 [VIII-6, 4-(6-hydroxy-3,4-dihydroisoquinolin-2(1H)-yl)benzoic acid]
